Experimental data taken from article PMC5096027, “Naturally Inspired Peptide Leads: Alanine Scanning Reveals an Actin‐Targeting Thiazole Analogue of Bisebromoamide” (Chembiochem, 2016).
Numbered stars: 1 amine (or outer) side, 2 acyl side, 3 side chain; on linkers, the order of the positions; unused ones are H or OH. Square brackets hold non-standard residues; d marks the D form. Peptide text beside a SMILES is read from it. * marks the point of attachment. X1 = C[C@H]1C[C@@H](c2nc(C(=O)[*:2])cs2)N([*:1])C1; Pyrrolidine(2S-propanoyl) = CCC(=O)[C@@H]1CCCN1*; dNMeTyr(3-Br) = CN[C@H](Cc1ccc(O)c(Br)c1)C(=O)O; NMeF = CN[C@@H](Cc1ccccc1)C(=O)O; Piv = CC(C)(C)C(=O)*

Experiments:
HCT116 cells [1] = experiment: IncuCyte ZOOM kinetic cell growth (confluence) assay; type: cell-based, human; conditions: half-log dose response, kinetic readout every 3 h
Description: (§1) The effects of Bis1–6 on the growth of HCT116 cells (human colon cancer cell‐line) were assessed on an IncuCyte Zoom platform. HCT116 cells express an activating Ras mutation, and represent an aggressive and common form of human colon cancer.26 Dasatinib (dual Src‐Abl tyrosine kinase inhibitor) and DMSO (vehicle, 0.1 % v/v) were used as controls. […] The relative activity of all the analogues was further evaluated by testing each in an eight‐point half‐log dose–response assay (alamarBlue cell viability assay).
(§2) High‐content imaging methods: Kinetic cell growth and apoptosis assays were performed with an IncuCyte ZOOM live‐cell imaging system (Essen Bioscience, Ann Arbor, MI). Cytoskeletal morphology assays were performed on an ImageXpress Micro High‐Content Analysis System (Molecular Devices, Sunnyvale, CA).
Apoptosis assay: Cells were seeded in a 96‐well plate (5000 cells per well) and incubated for 24 h before treatment. […] Apoptosis was detected with the cell‐permeable caspase biosensor NucView 488 (Biotium, Hayward, CA), which was added (1 μM) at the same time as compound. IncuCyte imaging software automatically quantifies cell density and NucView/Caspase positive objects at time points following compound addition. This provided a kinetic readout of cell growth and apoptosis induction in cells after addition of each analogue. […]

HCT116 cells [2] = experiment: Cytoskeletal morphology assay (ImageXpress high-content imaging, F-actin/DAPI); type: cell-based, human; conditions: 1 μM, 48 h, F-actin (phalloidin) and DAPI staining
From the text: Perhaps most striking in terms of identifying a mechanism for the cytotoxicity were the morphological images collected on an ImageXpress high content microscope (Figure 2). […] The morphological changes induced by Bis1 and Bis2 are in good accord with those previously reported for the parent compound (BBA) in HeLa cells,8 and indicate that the switch from thiazoline to thiazole to facilitate the generation of these Tz‐BBA analogues by SPPS has not impaired activity.
Figure 2 HCT116 cytoskeletal morphology after treatment with 1 μM Bis1–6 for 48 h. Cells were permeabilised and fixed in paraformaldehyde prior to staining nuclei (DAPI, blue) and filamentous‐actin fibres (F‐actin; phalloidin conjugated to Alexa Fluor […], green). Images were acquired in an automated ImageXpress microXL high‐content imaging platform (Molecular Devices) with a 20× objective; images show HCT116 cell morphology for DMSO (control) and each treatment group: A) DMSO; B) cytochalasin D; C) Bis1; D) Bis2; E) Bis3 (representative also for Bis4); F) Bis 6 (representative also for Bis5).
as §2
Cytoskeletal morphology assays: Cells were seeded in a 96‐well plates (5000 cells per well) and incubated for 24 h before treatment. The medium was then replaced with fresh medium containing Bis1–6 as eight‐point half‐log doses and incubated for 48 h. Control cells were incubated with DMSO (0.1 % v/v). All images were acquired on an automated ImageXpress Micro XL high‐content imaging platform (Molecular Devices) with a ×20 Plan Fluor ELWD Ph1 DM objective (Nikon) and a 16‐bit camera (binning resolution of 1). Four separate images per well were acquired by using laser‐based autofocus parameters optimised for cell plates and cell type. All immunostaining procedures were performed at room temperature in 96‐well plates (100 μL unless otherwise stated). Cells were fixed by addition of paraformaldehyde (8 % in PBS; final concentration 4 %) and incubated for 20 min. Cells were washed three times with PBS then incubated with a mixture of phalloidin conjugated to Alexa Fluor […] (Molecular Probes (Thermo Fisher) A12379; diluted 1:500) and 4′,6‐diamidino‐2‐phenylindole (DAPI; Sigma–Aldrich D8417) for 45 min in the absence of light. Cells were washed three times with PBS before imaging. Representative images are in Figure 2.

protein kinase C (PKC) = experiment: Reverse phase protein array (RPPA) profiling, PKC signalling; type: cell-based, human; conditions: HCT116 cell lysates, 3.0–0.03 μM, 24 h exposure, normalised to DMSO
From the text: (§3) The only clearly discernible inhibition of pathway signalling was for protein kinase C (PKC); there was discernible reduction in total protein expression of the insulin receptor substrate protein IRS‐1 (Figure S2).
(§4) Reverse phase protein array methods: The abundance of total protein and phosphorylated protein epitopes was quantified by using a Zeptosens reverse phase protein microarray platform (Bayer Technology Services, Leverkusen, Germany) as previously described.30 Briefly, HCT116 cells were seeded (4×10^5 cells per well) in six‐well plates. Cells were pre‐incubated in treatment‐free medium for 48 h prior to addition of Bis1–3 at six‐point half‐log doses (3.0–0.03 μM) and incubation for 30 min, 3 h and 24 h. Control samples were treated with medium containing DMSO (0.1 % v/v). The medium was then removed, and the cells were lysed by incubation with CLB1 buffer (Zeptosens) for 30 min. Cell lysates were normalised to a uniform protein concentration with CSBL1 spotting buffer (Zeptosens) prior to preparing a final fourfold concentration series of ([…] mL^−1). The concentration series of each sample was printed onto ZeptoChip protein microarray chips (Zeptosens) under controlled conditions (50 % humidity, 14 °C) by using a Nano‐Plotter NP21/E non‐contact printer (GeSIM, Radeberg, Germany). Single droplets (400 pL) were deposited onto the chips. A reference grid (four columns, 22 rows) of Alexa Fluor 647‐conjugated BSA (Invitrogen) was spotted onto each sub‐array; samples were spotted between reference columns. […] Microarray images representing the longest exposure without saturation of the fluorescence signal were automatically selected for analysis in ZeptoView 3.1 software. A weighted linear‐fit through the fourfold concentration series was used to calculate relative fluorescence intensity (RFI). […]
(§5) Figure S2. […] The mechanism-of-action of Tz-BBA analogues Bis1-3 at the post translational pathway level was evaluated against a panel of 62 protein and phospho-protein analytes by reverse phase protein array (RPPA). […]

IRS‐1 = experiment: Reverse phase protein array (RPPA) profiling, IRS-1 total protein expression; type: cell-based, human; conditions: HCT116 cell lysates, 3.0–0.03 μM, 24 h exposure, normalised to DMSO
From the text: as §3, §4, §5

HCT116 cells [3] = experiment: alamarBlue cell viability assay; type: cell-based, human; conditions: 72 h incubation, eight-point half-log doses 0.003–10 μM, alamarBlue fluorescence, relative to DMSO control, n=3
Description: as §1
Figure 1 HCT116 cell viability. Dose–response curves determined by an alamarBlue cell viability assay after incubation with Bis1–6 (0.003–10 μM) for 72 h. Conversion of the alamarBlue reagent to the activated fluorescent resorufin cell viability indicator was calculated for DMSO (vehicle) and compound‐treated samples. Viability is expressed relative to control (DMSO). Dose–response plots are mean±SD (n=3).
Cell viability assay: HCT116 cells were seeded in a 96‐well plate (5000 cells per well) and incubated for 48 h before treatment. The medium (DMEM with 10 % foetal calf serum and 2 mM glutamine) was replaced with fresh medium containing each of Bis1–6 as eight‐point half‐log doses, and incubated for 3 days. alamarBlue (Invitrogen) cell viability reagent (10 % v/v) was added, and the plate was incubated for 1 h. Fluorescence was detected with an EnVision multilabel reader (λ ex=540 nm, λ em=590 nm; PerkinElmer). All data were normalised to DMSO‐treated cells, and curves were fitted in GraphPad Prism with a sigmoidal variable‐slope curve.

actin‐filament = tested on: actin‐filament; parameters: method as in PMID 21322638; conditions: cited from earlier work
ERK = tested on: ERK; parameters: method as in PMID 19803465; conditions: NRK cells; cited from earlier work
[4] = tested on: panel of 39 human cancer cell lines; parameters: method as in PMID 19803465; conditions: cited from earlier work
HeLa S3 cells = tested on: HeLa S3 cells; parameters: method as in PMID 19803465; conditions: cited from earlier work
ERK and Akt = tested on: ERK and Akt; parameters: method as in PMID 24133625; conditions: two renal cancer cell lines; cited from earlier work

| Molecule | repression of cell growth (confluence) (HCT116 cells [1]) | cytoskeletal morphological changes relative to DMSO control (HCT116 cells [2]) | PKC pathway signalling (RPPA) (protein kinase C (PKC)) | total protein expression of IRS-1 (RPPA) (IRS‐1) | EC50 (HCT116 cells [3]) | action on actin filaments (actin‐filament) | phosphorylation of ERK (ERK) | GI50 [4] | IC50 against HeLa S3 cells (HeLa S3 cells) | phosphorylation of both ERK and Akt (ERK and Akt) |
| --- | --- | --- | --- | --- | --- | --- | --- | --- | --- | --- |
| CCC(=O)[C@@H]1CCCN1C(=O)[C@H](Cc1ccccc1)N(C)C(=O)[C@@H](CC(C)C)NC(=O)c1csc([C@@H]2C[C@H](C)CN2C(=O)[C@@H](Cc2ccc(O)c(Br)c2)N(C)C(=O)[C@H](C)NC(=O)C(C)(C)C)n1 [Bis1, thiazole‐bisebromoamide] (Piv-A[dNMeTyr(3-Br)][X1][dL][NMeF]-{Pyrrolidine(2S-propanoyl)}) | most active | clear disruption and aggregation of F‐actin filaments together with reduced cell‐substrate adhesion | reduced activity of PKC | reduced expression of IRS‐1 |  |  |  |  |  |  |
| CC(C)C[C@@H](NC(=O)c1csc([C@@H]2C[C@H](C)CN2C(=O)[C@@H](Cc2ccc(O)c(Br)c2)N(C)C(=O)[C@H](C)NC(=O)C(C)(C)C)n1)C(=O)N(C)[C@@H](Cc1ccccc1)C(=O)N[C@@H](C)C(N)=O [Bis2] (Piv-A[dNMeTyr(3-Br)][X1][dL][NMeF]A-NH2) |  | clear disruption and aggregation of F‐actin filaments together with reduced cell‐substrate adhesion | reduced activity of PKC | reduced expression of IRS‐1 | 71 nM |  |  |  |  |  |
| CCC(=O)[C@@H]1CCCN1C(=O)[C@H](C)NC(=O)[C@@H](CC(C)C)NC(=O)c1csc([C@@H]2C[C@H](C)CN2C(=O)[C@@H](Cc2ccc(O)c(Br)c2)N(C)C(=O)[C@H](C)NC(=O)C(C)(C)C)n1 [Bis3] (Piv-A[dNMeTyr(3-Br)][X1][dL]A-{Pyrrolidine(2S-propanoyl)}) |  | more elongated cells with prominent F‐actin filaments and promotion of cell‐substrate adhesion | more affected by Bis1 and Bis2 than by Bis3 | more affected by Bis1 and Bis2 than by Bis3 | 483 nM |  |  |  |  |  |
| CCC(=O)[C@@H]1CCCN1C(=O)[C@H](Cc1ccccc1)N(C)C(=O)[C@H](C)NC(=O)c1csc([C@@H]2C[C@H](C)CN2C(=O)[C@@H](Cc2ccc(O)c(Br)c2)N(C)C(=O)[C@H](C)NC(=O)C(C)(C)C)n1 [Bis4] (Piv-A[dNMeTyr(3-Br)][X1]A[NMeF]-{Pyrrolidine(2S-propanoyl)}) |  | more elongated cells with prominent F‐actin filaments and promotion of cell‐substrate adhesion |  |  | 178 nM |  |  |  |  |  |
| bisebromoamide [BBA] |  |  |  |  |  | actin‐filament stabiliser | inhibited | 40 nM | 0.04 µg/mL | inhibited |
